Data set [1] addresses T1, Human immunodeficiency virus type 1 integrase (Human immunodeficiency virus 1, UniProt Q7ZJM1). The data set is described as follows: Inhibition of HIV1 integrase 3'-end processing activity.
Data set [2] has as its target T1, Human immunodeficiency virus type 1 integrase. The data set is described as follows: Inhibition of HIV1 integrase strand transfer activity.
The nature of data set [3]: Cytotoxicity against human HCT116 cells. Type of data set: cell-based, HCT-116.
For data set [4], the system named is HCT-116. The data set is described as follows: Cytotoxicity against human HCT116 cells at 20 uM. Type of data set: cell-based. The settings on record: hct-116, 20 µM.
Data set [5] can be described thus: Cytotoxicity against human MDA-MB-435 cells. Type of data set: cell-based.
The subject of data set [6] is MDA-MB-435. As to the kind of experiment: Cytotoxicity against human MDA-MB-435 cells at 20 uM. Type of data set: cell-based. The settings on record: mda-mb-435, 20 µM.
Data set [7] addresses Human immunodeficiency virus type 1 integrase (Human immunodeficiency virus 1) (UniProt Q7ZJM1). As to the kind of experiment: Inhibition of HIV1 integrase 3'-end processing activity at 100 uM.
Data set [8] shares this target. The data set is described as follows: Inhibition of HIV1 integrase strand transfer activity at 100 uM.

Activity calls are given as the source filed them. The calls are words filed in the database; no cut-off is given here.

Chain of Human immunodeficiency virus type 1 integrase (Human immunodeficiency virus 1) (Q7ZJM1 as listed by the source): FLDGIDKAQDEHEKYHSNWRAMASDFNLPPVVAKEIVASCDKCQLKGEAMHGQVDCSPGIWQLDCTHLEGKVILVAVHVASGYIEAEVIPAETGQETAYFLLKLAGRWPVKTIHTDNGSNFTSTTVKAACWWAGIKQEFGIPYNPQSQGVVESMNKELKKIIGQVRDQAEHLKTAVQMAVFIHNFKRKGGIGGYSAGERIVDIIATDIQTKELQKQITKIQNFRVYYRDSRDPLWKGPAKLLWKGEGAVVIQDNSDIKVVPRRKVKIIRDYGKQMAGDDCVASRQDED
T1 sequence (Q7ZJM1 whole entry): as the sequence (Q7ZJM1 as listed by the source) above

In the case of `O=C(CSc1nnc(Cc2ccccc2)n1C1CCCCC1)NNC(=O)c1ccccc1O`, the IC50 (usually the concentration that gives 50% inhibition) in data set [1] was 21 µM; in data set [2] it was 17 µM. The CC50 in data set [3] and in data set [5] was over 20 µM throughout. The values for the Activity in data set [4] and in data set [6] were 11% and 5%, respectively.
As for `Cc1ccc(-n2c(SCC(=O)NNC(=O)c3ccccc3O)nnc2-c2ccccc2)cc1`, the figures for the 50% inhibitory concentration (IC50) in data set [1] and in data set [2] were 23 µM and 12 µM, respectively. Also, the CC50 (commonly the concentration at which the toxic effect on the cells reaches its halfway point) in data set [3] was found to be 15 µM; in data set [5], 20 µM.
Consider `COc1ccc(-c2nnc(SCC(=O)NNC(=O)c3ccccc3O)n2-c2ccccc2)cc1OC`, for which the IC50 is 22 µM in data set [1] and 21 µM in data set [2]. Besides, the CC50 in data set [3] and in data set [5] was over 20 µM each time. For the same compound, the Activity in data set [4] was 24%; in data set [6] it was 13%.
Consider `Cn1c(SCC(=O)NNC(=O)c2ccccc2O)nnc1-c1ccccc1`, for which the results for the IC50 in data set [1] and in data set [2] were 64 µM and 58 µM, respectively. The CC50 in data set [3] and in data set [5] was over 20 µM each time. Also, the Activity was determined as 39% in data set [4] and 32% in data set [6].
Turning to `O=C(CSc1nnc(-c2ccc(Cl)cc2)n1-c1ccccc1)N/N=C/c1ccccc1C(=O)O`, the IC50 in data set [1] and in data set [2] was over 100 µM in each case. Further, the CC50 in data set [3] and in data set [5] was over 20 µM throughout. Also, the Activity in data set [4] amounted to 0%; in data set [6], 8%. For the same compound, the outcome in data set [7] and in data set [8] was inactive.
As to `O=C(CSc1nnc(-c2ccccc2O)n1Cc1ccccc1)NNC(=O)c1ccccc1O`, the IC50 is 15 µM in data set [1] and 9 µM in data set [2]. For the same compound, the CC50 in data set [3] and in data set [5] was over 20 µM in each case. Besides, the Activity was 8% in data set [4] and 15% in data set [6].
For `O=C(CSc1nnnn1-c1ccccc1)NNC(=O)c1ccc(O)cc1O`, the IC50 in data set [1] came to 68 µM; in data set [2], 61 µM. The CC50 in data set [3] and in data set [5] was over 20 µM throughout. In addition, the Activity in data set [4] is reported as 15%; in data set [6], 3%.
Take `Cc1ccc(-n2c(SCC(=O)NNC(=O)c3ccccc3O)nnc2-c2ccccc2O)cc1`: the IC50 was found to be 5 µM in data set [1] and 3 µM in data set [2]. Also, the CC50 in data set [3] and in data set [5] was over 20 µM throughout. Also, the Activity in data set [4] amounted to 26%; in data set [6] it was 12%.
Consider `COc1ccccc1-n1c(SCC(=O)NNC(=O)c2ccccc2O)nnc1-c1ccccc1O`, for which the IC50 is 8 µM in data set [1] and 6 µM in data set [2]. Also, the CC50 in data set [3] was 20 µM; in data set [5], over 20 µM. The same compound gave an Activity in data set [6] of 40%.
With `Cc1cc(C)nc(SCc2nnc(SCC(=O)NNC(=O)c3ccccc3O)n2C)n1`, the 50% inhibitory concentration (IC50) in data set [1] and in data set [2] was over 100 µM in each case. The cytotoxic concentration (CC50) in data set [3] and in data set [5] was over 20 µM in each case. Also, the Activity in data set [4] amounted to 21%; in data set [6], 16%.
Consider `O=C(CSc1nnc(-c2ccccc2)n1Cc1ccccc1)NNC(=O)c1ccccc1O`, for which the IC50 in data set [1] is 21 µM; in data set [2], 9 µM. The CC50 in data set [3] and in data set [5] was over 20 µM each time. Moreover, the Activity in data set [4] came to 34%; in data set [6] it was 22%.
For `O=C(CSc1nnc(-c2ccc(Cl)cc2)n1-c1ccccc1)NNC(=O)c1ccccc1O`, the figures for the half-inhibitory concentration (IC50) in data set [1] and in data set [2] were 11 µM and 5 µM, respectively. In addition, the CC50 in data set [3] and in data set [5] was over 20 µM each time. Also, the Activity in data set [4] was found to be 36%; in data set [6] it was 30%.
As to `O=C(CSc1nnc(Cc2ccccc2)n1-c1cccc(Cl)c1)NNC(=O)c1ccccc1O`, the IC50 was determined as 9 µM in data set [1] and 8 µM in data set [2]. The CC50 in data set [3] and in data set [5] was over 20 µM each time. Besides, the Activity stood at 11% in data set [4] and 5% in data set [6].
`O=C(CSc1nnc(-c2ccncc2)n1-c1ccc(F)cc1)NNC(=O)c1ccccc1O`: the values for the IC50 in data set [1] and in data set [2] were 49 µM and 31 µM, respectively. In addition, the CC50 in data set [3] and in data set [5] was over 20 µM throughout. The figures for the Activity in data set [4] and in data set [6] were 22% and 14%, respectively.
Turning to `COc1ccc(-n2c(Cc3ccccc3)nnc2SCC(=O)NNC(=O)c2ccccc2O)cc1`, the values for the half-inhibitory concentration (IC50) in data set [1] and in data set [2] were 18 µM and 17 µM, respectively. For the same compound, the CC50 in data set [3] and in data set [5] was over 20 µM throughout. For the same compound, the Activity in data set [4] was 0%; in data set [6], 10%.
In the case of `Cc1cc(C)nc(SCc2nnc(SCC(=O)NNC(=O)c3ccccc3O)n2-c2ccccc2)n1`, the IC50 in data set [1] is 51 µM; in data set [2], 27 µM. For the same compound, the CC50 in data set [3] and in data set [5] was over 20 µM throughout. Moreover, the Activity in data set [4] was determined as 0%; in data set [6], 3%.
For the compound `O=C(CSc1nnc(-c2ccncc2)n1-c1ccccc1)N/N=C/c1ccccc1O`, the IC50 in data set [1] and in data set [2] was over 100 µM throughout. Also, the half-maximal cytotoxic concentration (CC50) in data set [3] and in data set [5] was over 20 µM throughout. Also, the values for the Activity in data set [4] and in data set [6] were 40% and 44%, respectively. Also, the result in data set [7] and in data set [8] was inactive.

Values taken from ChEMBL document CHEMBL1140576, “Discovery of novel non-cytotoxic salicylhydrazide containing HIV-1 integrase inhibitors” (Bioorg Med Chem Lett, 2007).
